How the values were obtained:
mu opioid receptor (rat) [1] = target: mu opioid receptor (rat) (UniProt P33535); test: Log(tau/KA) transduction coefficient (log10 (M-1)); higher = more effective agonism; conditions: receptor: rat MOR
[2] = target: delta opioid receptor (human) (UniProt P41143); test: as above; conditions: receptor: human DOR
[3] = target: delta opioid receptor (rat) (UniProt P33533); test: as above; conditions: receptor: rat DOR
[4] = target: delta opioid receptor (rat) (UniProt P33533)
[5] = target: mu opioid receptor (human) (UniProt P35372); test: Log(tau/KA) transduction coefficient (log10 (M-1)); higher = more effective agonism; conditions: receptor: human MOR
mu opioid receptor (rat) [6] = target: mu opioid receptor (rat) (UniProt P33535)

delta opioid receptor (human), sequence (P41143 whole entry): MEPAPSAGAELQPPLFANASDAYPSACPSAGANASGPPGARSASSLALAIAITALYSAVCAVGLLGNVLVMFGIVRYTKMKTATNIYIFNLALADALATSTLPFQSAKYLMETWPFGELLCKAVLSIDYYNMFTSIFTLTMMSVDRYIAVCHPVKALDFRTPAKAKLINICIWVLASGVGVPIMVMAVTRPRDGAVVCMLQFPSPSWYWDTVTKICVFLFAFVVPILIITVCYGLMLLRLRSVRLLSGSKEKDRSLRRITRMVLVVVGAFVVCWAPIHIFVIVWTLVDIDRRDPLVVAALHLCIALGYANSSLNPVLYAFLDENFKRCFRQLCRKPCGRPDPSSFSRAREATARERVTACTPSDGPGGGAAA
mu opioid receptor (human), sequence (P35372 whole entry): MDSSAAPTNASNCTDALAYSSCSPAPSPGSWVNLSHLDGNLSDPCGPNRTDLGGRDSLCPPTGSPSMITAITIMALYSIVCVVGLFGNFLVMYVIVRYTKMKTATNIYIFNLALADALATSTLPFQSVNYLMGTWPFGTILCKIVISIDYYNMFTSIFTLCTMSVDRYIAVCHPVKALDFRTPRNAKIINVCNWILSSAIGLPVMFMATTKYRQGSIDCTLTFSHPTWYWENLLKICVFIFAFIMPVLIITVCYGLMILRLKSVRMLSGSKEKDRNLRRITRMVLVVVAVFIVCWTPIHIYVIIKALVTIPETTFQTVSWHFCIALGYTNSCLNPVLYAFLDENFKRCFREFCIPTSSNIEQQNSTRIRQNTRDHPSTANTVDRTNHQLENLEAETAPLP
delta opioid receptor (rat), sequence (P33533 whole entry): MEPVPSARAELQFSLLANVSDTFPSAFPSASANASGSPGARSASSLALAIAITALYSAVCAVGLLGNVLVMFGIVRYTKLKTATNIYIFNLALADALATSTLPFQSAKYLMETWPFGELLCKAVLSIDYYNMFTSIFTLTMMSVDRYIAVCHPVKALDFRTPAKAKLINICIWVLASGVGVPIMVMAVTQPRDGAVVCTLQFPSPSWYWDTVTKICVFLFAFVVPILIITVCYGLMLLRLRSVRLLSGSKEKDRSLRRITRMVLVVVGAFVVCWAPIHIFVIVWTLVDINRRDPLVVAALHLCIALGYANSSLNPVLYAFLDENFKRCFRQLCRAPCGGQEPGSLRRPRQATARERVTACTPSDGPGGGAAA
mu opioid receptor (rat), sequence (P33535 whole entry): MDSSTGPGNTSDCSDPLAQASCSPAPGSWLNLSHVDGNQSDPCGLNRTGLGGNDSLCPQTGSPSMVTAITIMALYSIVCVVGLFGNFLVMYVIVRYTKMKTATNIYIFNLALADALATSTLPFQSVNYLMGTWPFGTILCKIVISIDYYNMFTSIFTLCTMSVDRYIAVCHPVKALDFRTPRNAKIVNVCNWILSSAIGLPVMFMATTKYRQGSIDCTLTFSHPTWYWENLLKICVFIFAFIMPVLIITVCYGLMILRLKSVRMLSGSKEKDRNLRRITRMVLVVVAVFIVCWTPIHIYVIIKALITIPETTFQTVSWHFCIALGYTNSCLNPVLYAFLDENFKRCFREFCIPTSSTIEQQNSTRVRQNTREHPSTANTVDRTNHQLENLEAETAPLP

| SMILES | Log(tau/KA) transduction coefficient (log10) (mu opioid receptor (rat) [1]; Gαi1) | Log(tau/KA) transduction coefficient (log10) (mu opioid receptor (rat) [1]; Gαi2) | Log(tau/KA) transduction coefficient (log10) (mu opioid receptor (rat) [1]; Gαo) | Log(tau/KA) transduction coefficient (log10) (mu opioid receptor (rat) [1]; Kir) | Log(tau/KA) transduction coefficient (log10) (mu opioid receptor (rat) [1]; cAMP) | Log(tau/KA) transduction coefficient (log10) (mu opioid receptor (rat) [1]; βarrestine 2) | Log(tau/KA) transduction coefficient (log10) (mu opioid receptor (rat) [1]; βarrestine 2-GRK2) | Log(tau/KA) transduction coefficient (log10) (mu opioid receptor (rat) [1]; βarrestine 2-GRK5) | Log(tau/KA) transduction coefficient (log10) ([2]; Gαi1) | Log(tau/KA) transduction coefficient (log10) ([2]; Gαi2) | Log(tau/KA) transduction coefficient (log10) ([2]; Gαo) | Log(tau/KA) transduction coefficient (log10) ([2]; Kir) | Log(tau/KA) transduction coefficient (log10) ([2]; cAMP) | Log(tau/KA) transduction coefficient (log10) ([2]; βarrestine 2-GRK6) | Log(tau/KA) transduction coefficient (log10) ([3]; Gαi1) | Log(tau/KA) transduction coefficient (log10) ([3]; Gαi2) | Log(tau/KA) transduction coefficient (log10) ([3]; Gαo) | Log(tau/KA) transduction coefficient (log10) ([3]; Kir) | Log(tau/KA) transduction coefficient (log10) ([3]; cAMP) | Log(tau/KA) transduction coefficient (log10) (mu opioid receptor (rat) [1]; βarrestine 2-GRK6) | further results |
| --- | --- | --- | --- | --- | --- | --- | --- | --- | --- | --- | --- | --- | --- | --- | --- | --- | --- | --- | --- | --- | --- |
| CO[C@@]12CC[C@@]3(C[C@@H]1[C@](C)(O)C(C)(C)C)[C@H]1Cc4ccc(O)c5c4[C@@]3(CCN1CC1CC1)[C@H]2O5 [Buprenorphine] | 6.88 | 7.63 | 7.28 | 8.05 | 6.93 | 5.04 | 5.79 | 5.36 | 5.51 | 6.73 | 6.61 | 4.88 | 8.45 | 3.5 | 6.16 | 6.14 | 6.06 | 4.6 | 7.87 | – | – |
| CO[C@@]12CC[C@@]3(C[C@@H]1[C@](C)(O)C(C)(C)C)[C@H]1Cc4ccc(O)c5c4[C@@]3(CCN1CC1CC1)[C@H]2O5 [Buprenorphine] (receptor: rat DOR) | – | – | – | – | – | – | – | – | – | – | – | – | – | – | – | – | – | – | – | – | pEC50 ([4]; Gαi1): 7.49; pEC50 ([4]; Gαi2): 6.88; pEC50 ([4]; Gαo): 7.28; pEC50 ([4]; Kir): 5.53; pEC50 ([4]; cAMP): 7.78 |
| C[C@@H](NC(=O)[C@@H](N)Cc1ccc(O)cc1)C(=O)NCC(=O)N(C)[C@@H](Cc1ccccc1)C(=O)NCCO [DAMGO] | 6.18 | 7.5 | 6.49 | 7.11 | 8.44 | 5.51 | 6.21 | 6.26 | – | – | – | – | – | – | – | – | – | – | – | 5.9 | Log(tau/KA) transduction coefficient (log10) (mu opioid receptor (rat) [1]; βarrestine 1): 5.59 |
| CN(C)C(=O)C(CCN1CCC(O)(c2ccc(Cl)cc2)CC1)(c1ccccc1)c1ccccc1 [Loperamide] | 7.2 | 8.27 | 7.56 | 6.46 | 7.69 | 5.68 | 6.37 | 6.39 | 4.52 | 5.79 | 5.28 | 5.54 | 7.28 | 4.63 | 4.78 | 5.24 | 5.22 | 5.02 | 5.9 | 6.04 | Log(tau/KA) transduction coefficient (log10) (mu opioid receptor (rat) [1]; βarrestine 1): 6.08; Log(tau/KA) transduction coefficient (log10) ([2]; βarrestine 1): 4.05; Log(tau/KA) transduction coefficient (log10) ([2]; βarrestine 2): 4.37; Log(tau/KA) transduction coefficient (log10) ([2]; βarrestine 2-GRK2): 4.62; Log(tau/KA) transduction coefficient (log10) ([2]; βarrestine 2-GRK5): 4.71; Log(tau/KA) transduction coefficient (log10) ([3]; βarrestine 1): 3.96; Log(tau/KA) transduction coefficient (log10) ([3]; βarrestine 2): 4.1; Log(tau/KA) transduction coefficient (log10) ([3]; βarrestine 2-GRK2): 4.29; Log(tau/KA) transduction coefficient (log10) ([3]; βarrestine 2-GRK5): 4.61; Log(tau/KA) transduction coefficient (log10) ([3]; βarrestine 2-GRK6): 4.48 |
| CN(C)C(=O)C(CCN1CCC(O)(c2ccc(Cl)cc2)CC1)(c1ccccc1)c1ccccc1 [Loperamide] (receptor: rat DOR) | – | – | – | – | – | – | – | – | – | – | – | – | – | – | – | – | – | – | – | – | pEC50 ([4]; Gαi1): 5.05; pEC50 ([4]; Gαi2): 5.42; pEC50 ([4]; Gαo): 5.51; pEC50 ([4]; Kir): 5.23; pEC50 ([4]; cAMP): 6.1; pEC50 ([4]; βarrestine 1): 4.55; pEC50 ([4]; βarrestine 2): 4.47; pEC50 ([4]; βarrestine 2-GRK2): 4.36; pEC50 ([4]; βarrestine 2-GRK5): 4.83; pEC50 ([4]; βarrestine 2-GRK6): 4.54 |
| CCC1(c2cccc(O)c2)CCCCN(C)C1 (stereo not given) [Meptazinol] | 5.15 | 6.21 | 5.38 | 5.41 | 6.58 | – | – | – | – | – | – | – | – | – | – | – | – | – | – | – | Log(tau/KA) transduction coefficient (log10) ([5]; Gαi1): 5.23; Log(tau/KA) transduction coefficient (log10) ([5]; Gαi2): 6.1; Log(tau/KA) transduction coefficient (log10) ([5]; Gαo): 6.31; Log(tau/KA) transduction coefficient (log10) ([5]; Kir): 4.84; Log(tau/KA) transduction coefficient (log10) ([5]; cAMP): 8.02 |
| CCC1(c2cccc(O)c2)CCCCN(C)C1 (stereo not given) [Meptazinol] (receptor: rat MOR) | – | – | – | – | – | – | – | – | – | – | – | – | – | – | – | – | – | – | – | – | pEC50 (mu opioid receptor (rat) [6]; Gαi1): 5.94; pEC50 (mu opioid receptor (rat) [6]; Gαi2): 6.52; pEC50 (mu opioid receptor (rat) [6]; Gαo): 6.28; pEC50 (mu opioid receptor (rat) [6]; Kir): 6.08; pEC50 (mu opioid receptor (rat) [6]; cAMP): 6.99 |
| CSCC[C@H](NC(=O)[C@H](Cc1ccccc1)NC(=O)CNC(=O)CNC(=O)[C@@H](N)Cc1ccc(O)cc1)C(=O)O [Met-Enk] | 7.24 | 8.73 | 6.21 | 6.72 | 8.44 | 5.65 | 6.24 | 6.35 | 5.92 | 7.02 | 6.59 | 7.27 | 8.98 | 6.88 | 5.86 | 6.55 | 6.44 | 4.97 | 9.4 | 6.06 | Log(tau/KA) transduction coefficient (log10) (mu opioid receptor (rat) [1]; βarrestine 1): 5.63; Log(tau/KA) transduction coefficient (log10) ([2]; βarrestine 1): 6.24; Log(tau/KA) transduction coefficient (log10) ([2]; βarrestine 2): 6.28; Log(tau/KA) transduction coefficient (log10) ([2]; βarrestine 2-GRK2): 6.57; Log(tau/KA) transduction coefficient (log10) ([2]; βarrestine 2-GRK5): 7.12; Log(tau/KA) transduction coefficient (log10) ([5]; Gαi1): 6.47; Log(tau/KA) transduction coefficient (log10) ([5]; Gαi2): 7.32; Log(tau/KA) transduction coefficient (log10) ([5]; Gαo): 7.4; Log(tau/KA) transduction coefficient (log10) ([5]; Kir): 6.58; Log(tau/KA) transduction coefficient (log10) ([5]; cAMP): 8.62; Log(tau/KA) transduction coefficient (log10) ([5]; βarrestine 1): 5.9; Log(tau/KA) transduction coefficient (log10) ([5]; βarrestine 2): 5.97; Log(tau/KA) transduction coefficient (log10) ([5]; βarrestine 2-GRK2): 6.66; Log(tau/KA) transduction coefficient (log10) ([5]; βarrestine 2-GRK5): 6.65; Log(tau/KA) transduction coefficient (log10) ([5]; βarrestine 2-GRK6): 6.36; Log(tau/KA) transduction coefficient (log10) ([3]; βarrestine 1): 6.29; Log(tau/KA) transduction coefficient (log10) ([3]; βarrestine 2): 6.58; Log(tau/KA) transduction coefficient (log10) ([3]; βarrestine 2-GRK2): 6.67; Log(tau/KA) transduction coefficient (log10) ([3]; βarrestine 2-GRK5): 7.03; Log(tau/KA) transduction coefficient (log10) ([3]; βarrestine 2-GRK6): 6.83 |
| CN1CC[C@]23c4c5ccc(O)c4O[C@H]2[C@@H](O)C=C[C@H]3[C@H]1C5 [Morphine] | 6.9 | 8.35 | 7.99 | 7.44 | 8.08 | 5.69 | 6.29 | 6.37 | 4.26 | 5.75 | 5.24 | 5.05 | 8.19 | 3.94 | 4.41 | 5.31 | 5.14 | 4.79 | 6.68 | 5.35 | Log(tau/KA) transduction coefficient (log10) ([2]; βarrestine 2-GRK5): 4.04; Log(tau/KA) transduction coefficient (log10) ([3]; βarrestine 2): 4.16; Log(tau/KA) transduction coefficient (log10) ([3]; βarrestine 2-GRK2): 4.24; Log(tau/KA) transduction coefficient (log10) ([3]; βarrestine 2-GRK5): 4.53; Log(tau/KA) transduction coefficient (log10) ([3]; βarrestine 2-GRK6): 4.2 |
| COc1ccc2c3c1O[C@H]1C(=O)CC[C@@]4(O)[C@@H](C2)N(C)CC[C@]314 [Oxycodone] | 5.49 | 6.52 | 5.91 | 5.97 | 7.45 | – | 4.81 | 5.06 | 3.52 | 5.21 | 4.26 | 3.72 | 6.63 | 3.02 | 2.98 | 4.41 | 3.8 | 3.29 | 6.08 | 4.81 | Log(tau/KA) transduction coefficient (log10) (mu opioid receptor (rat) [1]; βarrestine 1): 5.5; Log(tau/KA) transduction coefficient (log10) ([2]; βarrestine 2-GRK2): 3.82; Log(tau/KA) transduction coefficient (log10) ([2]; βarrestine 2-GRK5): 3.15; Log(tau/KA) transduction coefficient (log10) ([3]; βarrestine 2): 3.12; Log(tau/KA) transduction coefficient (log10) ([3]; βarrestine 2-GRK2): 3.16; Log(tau/KA) transduction coefficient (log10) ([3]; βarrestine 2-GRK5): 3.5; Log(tau/KA) transduction coefficient (log10) ([3]; βarrestine 2-GRK6): 3.31 |
| COc1cccc(C2(O)CCCCC2CN(C)C)c1 (stereo not given) [Tramadol] | 2.98 | 4.73 | 3.82 | 3.81 | 5.02 | – | – | – | – | – | – | – | – | – | – | – | – | – | – | – | Log(tau/KA) transduction coefficient (log10) ([5]; Gαi1): 3.39; Log(tau/KA) transduction coefficient (log10) ([5]; Gαi2): 4.54; Log(tau/KA) transduction coefficient (log10) ([5]; Gαo): 4.27; Log(tau/KA) transduction coefficient (log10) ([5]; Kir): 3.78; Log(tau/KA) transduction coefficient (log10) ([5]; cAMP): 6.29 |

From the supplement of paper PMC6733853
